According to PubChem BioAssay AID330 (DTP/NCI, 2004):
“And” between values parts separate entries of the source, which are not always exact repeats. Equal entries are not always repeated. Toxic doses and inconclusive results are not listed. Rule for the calls: active = survival T/C of 150% or more; inactive = T/C below 125% in these data.

Test system: P388 leukemia ip, CD2F1 mice, survival T/C
Test: NCI In Vivo Anticancer Drug Screen. Data for tumor model P388 Leukemia (intraperitoneal) in CD2F1 (CDF1) mice
Settings: endpoint: median survival time, higher = longer survival
In short: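 Mice carrying the transplanted tumor received test compound or vehicle. Survival was recorded in each group, and the value is the treated-group measurement divided by that of the vehicle-treated control group.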

[1] = dose: 100.0 mg/kg/injection, schedule: Q04DX003 (ip), vehicle: saline with Tween-80
[2] = dose: 200.0 mg/kg/injection, schedule: Q04DX003 (ip), vehicle: saline with Tween-80
[3] = dose: 400.0 mg/kg/injection, schedule: Q04DX003 (ip), vehicle: saline with Tween-80
[4] = dose: 60.0 mg/kg/injection, schedule: Q01DX005 (ip), vehicle: saline with Tween-80
[5] = dose: 120.0 mg/kg/injection, schedule: Q01DX005 (ip), vehicle: saline with Tween-80
[6] = dose: 100.0 mg/kg/injection, schedule: Q04DX002 (ip), vehicle: saline with Tween-80
[7] = dose: 200.0 mg/kg/injection, schedule: Q04DX002 (ip), vehicle: saline with Tween-80
[8] = dose: 240.0 mg/kg/injection, schedule: Q01DX005 (ip), vehicle: saline with Tween-80
[9] = dose: 50.0 mg/kg/injection, schedule: Q01DX005 (ip), vehicle: Klucel (hydroxypropylcellulose) (HPC)
[10] = dose: 100.0 mg/kg/injection, schedule: Q01DX005 (ip), vehicle: Klucel (hydroxypropylcellulose) (HPC)
[11] = dose: 50.0 mg/kg/injection, schedule: Q01DX005 (ip), vehicle: saline with Tween-80
[12] = dose: 100.0 mg/kg/injection, schedule: Q01DX005 (ip), vehicle: saline with Tween-80
[13] = dose: 200.0 mg/kg/injection, schedule: Q01DX005 (ip), vehicle: saline with Tween-80
[14] = dose: 50.0 mg/kg/injection, schedule: Q01DX009 (ip), vehicle: saline with Tween-80
[15] = dose: 100.0 mg/kg/injection, schedule: Q01DX009 (ip), vehicle: saline with Tween-80
[16] = dose: 200.0 mg/kg/injection, schedule: Q01DX005 (ip), vehicle: Klucel (hydroxypropylcellulose) (HPC)

Measured: T/C

CCOC(=O)/C=C/c1nc(C(=O)OCC)c(C)c(=O)[nH]1
inactive: dose: 1.0 mg/kg/injection, schedule: Q01DX009 (ip), vehicle: other 120 % of control | dose: 2.0 mg/kg/injection, schedule: Q01DX009 (ip), vehicle: other 99 % of control | dose: 4.0 mg/kg/injection, schedule: Q01DX009 (ip), vehicle: other 99 % of control | dose: 8.0 mg/kg/injection, schedule: Q01DX009 (ip), vehicle: other 107 % of control | dose: 16.0 mg/kg/injection, schedule: Q01DX009 (ip), vehicle: other 104 % of control and 95 % of control | dose: 32.0 mg/kg/injection, schedule: Q01DX009 (ip), vehicle: other 95 % of control | dose: 64.0 mg/kg/injection, schedule: Q01DX009 (ip), vehicle: other 92 % of control | dose: 128.0 mg/kg/injection, schedule: Q01DX009 (ip), vehicle: other 95 % of control | dose: 200.0 mg/kg/injection, schedule: Q01DX009 (ip), vehicle: distilled water + Tween-80 99 % of control | dose: 256.0 mg/kg/injection, schedule: Q01DX009 (ip), vehicle: other 113 % of control | dose: 400.0 mg/kg/injection, schedule: Q01DX009 (ip), vehicle: distilled water + Tween-80 100 % of control

c1ccc2nc3c(nc2c1)[nH]c1ccccc13
inactive: dose: 6.25 mg/kg/injection, schedule: Q01DX009 (ip), vehicle: Klucel (hydroxypropylcellulose) (HPC) 101 % of control | dose: 12.5 mg/kg/injection, schedule: Q01DX009 (ip), vehicle: Klucel (hydroxypropylcellulose) (HPC) 95 % of control | dose: 25.0 mg/kg/injection, schedule: Q01DX009 (ip), vehicle: Klucel (hydroxypropylcellulose) (HPC) 103 % of control | dose: 50.0 mg/kg/injection, schedule: Q01DX009 (ip), vehicle: Klucel (hydroxypropylcellulose) (HPC) 95 % of control

O=c1cc(Cc2ccccc2)[nH]c(=S)[nH]1
inactive: [1] 109 % of control | [2] 104 % of control | [3] 100 % of control

CCN(CC)CCNC(=O)c1ccc(NCN2C(=O)NC(c3ccccc3)(c3ccccc3)C2=O)cc1
inactive: [4] 104 % of control | [5] 110 % of control

O=NNc1c2ccccc2nc2ccccc12
inactive: dose: 0.09 mg/kg/injection, schedule: Q01DX009 (ip), vehicle: water 99 % of control | dose: 0.18 mg/kg/injection, schedule: Q01DX009 (ip), vehicle: water 95 % of control | dose: 0.37 mg/kg/injection, schedule: Q01DX009 (ip), vehicle: water 101 % of control | dose: 0.75 mg/kg/injection, schedule: Q01DX009 (ip), vehicle: water 104 % of control | dose: 1.5 mg/kg/injection, schedule: Q01DX009 (ip), vehicle: water 86 % of control

CN1C(=O)NC(=O)C(C)(C2(Br)CCCCC2)C1=O (stereo unspecified)
inactive: dose: 100.0 mg/kg/injection, schedule: Q01DX001 (ip), vehicle: Klucel (hydroxypropylcellulose) (HPC) 106 % of control | dose: 200.0 mg/kg/injection, schedule: Q01DX001 (ip), vehicle: Klucel (hydroxypropylcellulose) (HPC) 99 % of control | dose: 400.0 mg/kg/injection, schedule: Q01DX001 (ip), vehicle: Klucel (hydroxypropylcellulose) (HPC) 99 % of control

ClCSc1nc2ccccc2o1
inactive: dose: 50.0 mg/kg/injection, schedule: Q04DX002 (ip), vehicle: saline with Tween-80 102 % of control | [6] 102 % of control | [7] 107 % of control

NS(=O)(=O)c1ncc(C(=O)N2CCN(Cc3ccccc3)CC2)[nH]1
inactive: [4] 103 % of control | [5] 107 % of control | [8] 100 % of control

[CH3][Sn]([CH3])([Cl])[O][Sn]([CH3])([CH3])[Cl]
inactive: dose: 1.56 mg/kg/injection, schedule: Q01DX009 (ip), vehicle: saline 115 % of control | dose: 3.12 mg/kg/injection, schedule: Q01DX009 (ip), vehicle: saline 109 % of control and 118 % of control | dose: 6.25 mg/kg/injection, schedule: Q01DX009 (ip), vehicle: saline 118 % of control and 123 % of control | dose: 12.5 mg/kg/injection, schedule: Q04DX003 (ip), vehicle: saline 116 % of control | dose: 25.0 mg/kg/injection, schedule: Q04DX003 (ip), vehicle: saline 124 % of control | dose: 50.0 mg/kg/injection, schedule: Q04DX003 (ip), vehicle: saline 109 % of control

CN(C)c1ccc2ncc(C(N)=O)c(N)c2c1
inactive: dose: 7.5 mg/kg/injection, schedule: Q01DX005 (ip), vehicle: Klucel (hydroxypropylcellulose) (HPC) 91 % of control | dose: 15.0 mg/kg/injection, schedule: Q01DX005 (ip), vehicle: Klucel (hydroxypropylcellulose) (HPC) 99 % of control | dose: 30.0 mg/kg/injection, schedule: Q01DX005 (ip), vehicle: Klucel (hydroxypropylcellulose) (HPC) 97 % of control

O=C(O)CS(=O)(=O)N1CCOCC1
inactive: [9] 102 % of control | [10] 94 % of control

O=S1(=O)CCC(N(/N=C/c2ccco2)c2ccccc2)C1 (stereo unspecified)
inactive: [11] 95 % of control | [12] 101 % of control | [13] 101 % of control

O=C1NC(=O)C2(Cc3cccc4cccc2c34)N1 (stereo unspecified)
inactive: [11] 103 % of control | [12] 100 % of control | [13] 99 % of control

COCOc1c(OC)c(C2(O)C(=O)N(C)c3ccccc32)c(OCOC)c(OC)c1C1(O)C(=O)N(C)c2ccccc21 (stereo unspecified)
inactive: [4] 100 % of control | [5] 89 % of control | [8] 88 % of control

CCCCNC(=O)c1ccccc1C(=O)NC1(C(=O)NCCCC)CCCC1
inactive: [11] 101 % of control | [12] 97 % of control | [13] 93 % of control

CCn1cc(C(=O)O)c(=O)c2ccc(C)[n+](CCSC(=N)N)c21
inactive: [6] 104 % of control | [7] 99 % of control | dose: 400.0 mg/kg/injection, schedule: Q04DX002 (ip), vehicle: saline with Tween-80 100 % of control

CCCCN(CCCC)CC(O)c1ccc(OCc2ccccc2)c2ccccc12 (stereo unspecified)
inactive: [11] 102 % of control | [12] 102 % of control | [13] 102 % of control

CCn1c2ccccc2c2cc(N=Nc3ccc4c(c3)c3ccccc3n4CC)ccc21
inactive: [14] 105 % of control | [15] 113 % of control

O=C(Nc1ccc(S(=O)(=O)c2ccc(NC(=O)c3ccco3)cc2)cc1)c1ccco1
inactive: [14] 105 % of control | [15] 98 % of control | dose: 200.0 mg/kg/injection, schedule: Q01DX009 (ip), vehicle: saline with Tween-80 95 % of control

Cc1cc(C)c(OC(=O)NCCCl)c(C)c1
inactive: [9] 97 % of control | [10] 97 % of control | [16] 96 % of control

Cc1cc2cc(C)nc(C)c2c(C)n1
inactive: [9] 94 % of control | [10] 89 % of control | [16] 92 % of control

COCNC(=S)c1ccc(C(N)=O)nc1C(=O)NC(C)(C)C
inactive: [11] 98 % of control | [12] 100 % of control | [13] 99 % of control

CCOC(=O)CSC(=O)c1cccnc1Oc1ccccc1
inactive: [9] 94 % of control | [10] 90 % of control | [16] 93 % of control

Nc1c(Br)cc2c(c1Br)Cc1cc(Br)ccc1-2
inactive: [1] 104 % of control | [2] 109 % of control | [3] 90 % of control

C=C1C(=O)OC2CC3(C)OC(=CC3=O)/C(C)=C\C(OC(=O)C3(C)OC3C)C12 (stereo unspecified)
inactive: dose: 1.56 mg/kg/injection, schedule: Q01DX005 (ip), vehicle: distilled water + Tween-80 105 % of control | dose: 3.12 mg/kg/injection, schedule: Q01DX005 (ip), vehicle: distilled water + Tween-80 99 % of control | dose: 6.25 mg/kg/injection, schedule: Q01DX005 (ip), vehicle: distilled water + Tween-80 96 % of control | dose: 12.5 mg/kg/injection, schedule: Q01DX005 (ip), vehicle: distilled water + Tween-80 101 % of control

COC(=O)c1ccccc1SSCCN
inactive: dose: 12.5 mg/kg/injection, schedule: Q01DX005 (ip), vehicle: saline with Tween-80 100 % of control | dose: 25.0 mg/kg/injection, schedule: Q01DX005 (ip), vehicle: saline with Tween-80 106 % of control | [11] 101 % of control and 109 % of control

c1cnn([B-]2(n3cccn3)n3ccc[n+]3[B-](n3cccn3)(n3cccn3)n3ccc[n+]32)c1
inactive: [4] 102 % of control | [5] 102 % of control | [8] 100 % of control

[CH3][Sn]([CH3])([n]1cnc2ccccc21)[n]1cnc2ccccc21
inactive: dose: 3.12 mg/kg/injection, schedule: Q01DX005 (ip), vehicle: Klucel (hydroxypropylcellulose) (HPC) 111 % of control | dose: 6.25 mg/kg/injection, schedule: Q01DX005 (ip), vehicle: Klucel (hydroxypropylcellulose) (HPC) 115 % of control | dose: 12.5 mg/kg/injection, schedule: Q01DX005 (ip), vehicle: Klucel (hydroxypropylcellulose) (HPC) 118 % of control
